Laboratory results reported in PubChem BioAssay AID977606 (Broad Institute, 2014).
Activity calls are given as the source filed them. No rule for the calls is given here.

The compounds below were run on INS-1E Gaussia luciferase insulin secretion, no glucose, luminescence (assay: glucose-independent GLuc insulin release activation – cell-based, INS-1E, Gaussia luciferase, luminescence, cherry-pick, counter-screen for glucose-dependent insulin secretion activators, dose response (AID 977606)).

Row | SMILES | AC40
1 | CC(=O)N(/N=C/c1cccc(C)c1)c1nc(-c2ccc(Br)cc2)cs1 | 2.15 µM
2 | COc1cc(CN2C[C@@H]3N[C@H](C2)C3c2ccc(/C=C/c3ccccc3)cc2)cc(OC)c1 (stereo partly drawn) | 1.76 µM
3 | CCCCc1c(-c2ccccc2OC)ncn1Cc1ccc(C)cc1 | 11.9 µM
4 | CC(C)C[C@H](NC(=O)c1[nH]cnc1C(=O)N[C@@H](C)c1ccccc1)C(=O)OC(C)(C)C | 20 µM
5 | CC(=O)Oc1ccccc1C(=O)OCCN=C1NS(=O)(=O)c2ccccc21 | > 35 µM (inactive)
6 | COc1ccc(C(CCNCc2ccc(OC(C)C)cc2)C(C)C)cc1 (stereo not drawn) | 12.3 µM
7 | CC(C)Cn1nc(-c2ccccc2)c2ccccc2c1=O | 8.13 µM
8 | CCCCCCN1C[C@H](n2cc(C3CC3)nn2)[C@@H](O)C[C@@H]1c1ccc(C)cc1 | 5.22 µM
9 | COc1ccc(S(=O)(=O)N2CCc3ccccc32)cc1C(=O)Nc1cccnc1 | 16.3 µM
10 | OC(CNCCc1ccc(C(F)(F)F)cc1)COC(c1ccccc1)c1ccccc1 (stereo not drawn) | 4.72 µM
11 | COc1ccc(CC(N)c2csc(NC(=O)Nc3ccc(C(C)C)cc3)n2)cc1 (stereo not drawn) | 3.58 µM
12 | O=C1N/C(=N\N=C\c2cccs2)SC1Cc1cccc(Cl)c1 (stereo not drawn) | 5.93 µM
13 | O=C(N/N=C\c1ccc(CNS(=O)(=O)c2ccc(Cl)cc2)o1)C(=O)Nc1ccc(Oc2ccccc2)cc1 | 1.8 µM
14 | N#Cc1ccc(-c2ccc([C@@H]3[C@H]4CNC[C@@H]3N4Cc3cc(F)ccc3F)cc2)cc1 | 12.8 µM
15 | Cc1cccc(Cn2ccc(-c3ccc(Cl)cc3)c(C#N)c2=O)c1 | 3.46 µM
16 | C=CCn1c(=NC(=O)c2cc(Cl)sc2Cl)sc2cc(S(N)(=O)=O)ccc21 | 4.47 µM
17 | CC(C)(C)c1ccccc1OCC(O)CN1CCN(c2ccccn2)CC1 (stereo not drawn) | 13 µM
18 | Cc1ccc(F)cc1-c1nc(NC(C)C)nc2cc(-c3ccccc3)sc12 | 13.6 µM
19 | CN(C)CCOc1ccc(-c2c(-c3ccccc3)sc3ccccc23)cc1 | 1.97 µM
20 | O=C1Nc2ccccc2N(C(=O)c2ccc3ccccc3c2)C1c1nc2ccccc2[nH]1 (stereo not drawn) | 6.41 µM
21 | Clc1ccc(/C=N/NC2=Nc3cccc4cccc2c34)cc1 | 2.88 µM
22 | Fc1cccc(CN2C[C@@H]3N[C@H](C2)C3c2ccc(/C=C/c3ccccc3)cc2)c1 (stereo partly drawn) | 6.41 µM

Row | SMILES | AC40
23 | Cc1ccc2oc(-c3cccc(NC(=O)Cc4cccs4)c3)nc2c1 | 2.42 µM
24 | O=C(Nc1nnc(-c2ccccc2SCc2ccccc2F)s1)Nc1ccccc1F | 12.8 µM
25 | CCOc1cc(/C=N/NC(=O)CCn2nc(C)cc2C)ccc1O | 21.9 µM
26 | OC(c1ccccc1)(c1ccccc1)C1CCN(CCCOc2ccc(-c3ccc(F)cc3F)cc2)CC1 | 1.29 µM
27 | CCOc1nc(-c2ccccc2)c2cc(Br)ccc2n1 | 21.9 µM
28 | Cc1c(C)c2c(OCC(=O)O)cc3c(c2oc1=O)CCC(C)(C)O3 | 22 µM
29 | COc1cc2sc3ccc(C#Cc4ccc(N)cc4)cc3c(=O)c2cc1OC | 19 µM
30 | COc1ccccc1CCn1cnc(-c2ccc(F)cc2)c1CC(C)C | 6.41 µM
31 | CCCCc1ccc(NC(=O)COc2ccc(C(=O)Nc3ccccc3OCC)cc2)cc1 | 1.3 µM
32 | Cc1ccccc1CSCc1ccc(C(=O)NCCCN2CCOCC2)o1 | 26.4 µM
33 | CCC(C)Sc1cccc(-c2nc3cnccn3c2NC2CCCCC2)c1 (stereo not drawn) | 4.26 µM
34 | CC(C)CC#Cc1ccc2c(c1)O[C@@H](CN(C)Cc1cccc(F)c1)[C@H](C)CN([C@@H](C)CO)S2(=O)=O | 12.7 µM
35 | C[C@@H]1CN([C@H](C)CO)S(=O)(=O)c2ccc(-c3ccc(F)cc3)cc2O[C@H]1CN(C)Cc1cccc(F)c1 | 17.7 µM
36 | Fc1ccccc1/C=N/n1c(C2CCCCC2)n[nH]c1=S | 11.8 µM
37 | Fc1cccc(-c2ccc(C3[C@@H]4CN(Cc5ccccc5F)C[C@H]3N4)cc2)c1 (stereo partly drawn) | 6.11 µM
38 | COc1ccc(C)c2sc(N(CCCN(C)C)C(=O)c3ccc(S(=O)(=O)N4CCc5ccccc5C4)cc3)nc12 | 3.62 µM
39 | O=C(Nc1nc(-c2ccc(-c3ccccc3)cc2)cs1)C1=COCCO1 | 4.37 µM
40 | COc1ccc(/C=N/N(C(C)=O)c2nc(-c3ccc(C)cc3)cs2)cc1 | 1.98 µM
41 | Cc1cccc(OCC(=O)Nc2ccc(NC(=O)c3ccco3)cc2)c1 | 12.4 µM
42 | COc1ccc(-c2cccc(C(=O)Nc3ccc(C)cc3)c2)cc1 | 13.6 µM
43 | NS(=O)(=O)c1ccc(CCNc2nc3c(-c4cccc(F)c4)nnn3c3ccccc23)cc1 | 2.03 µM
44 | C[C@@H]1CN([C@@H](C)CO)C(=O)c2cc(Br)cnc2O[C@H]1CN(C)C(=O)C1CC1 | > 35 µM (inactive)

Row | SMILES | AC40
45 | Cc1nc2ccccc2c2oc(C(=O)N3CCCC(C)C3)cc12 (stereo not drawn) | 16 µM
46 | CCc1ccc(OCC(=O)NC(=S)Nc2ccc(F)cc2)c(Br)c1 | 6.76 µM
47 | COc1ccc(NC(=O)COc2ccc(C(=O)NC3CCCc4ccccc43)cc2OC)cc1 (stereo not drawn) | 5.92 µM
48 | COc1ccccc1C(=O)Nc1c2c(nn1-c1cccc(C)c1C)CS(=O)(=O)C2 | 13 µM
49 | N#Cc1sc2nc(N3CCCCC3)c3c(c2c1N)CCCC3 | 21.2 µM
50 | COC(=O)c1sccc1NC(=O)COc1ccc(Cl)cc1Cl | 6.02 µM
51 | COc1nc(-c2ccc(Cl)cc2)ccc1-c1noc(-c2ccco2)n1 | 16 µM
52 | O=C(Nc1ccc(SC(F)F)cc1)c1cccc2nc3ccccc3nc12 | 10.2 µM
53 | N#Cc1nccnc1S(=O)(=O)c1cccs1 | 0.355 µM
54 | Cc1ccc(NC(=O)c2oc3ccc(S(=O)(=O)N4CCOCC4)cc3c2C)cc1C | 7.57 µM
55 | NC1=NC[C@H](c2ccccc2)N1CCCCC1CCCCC1 | 17.4 µM
56 | Cn1c(=O)c(C(=O)NNC(=O)c2cccc(Cl)c2)c(O)c2ccccc21 | 9.13 µM
57 | CCCNC(=O)c1nnsc1S(=O)(=O)c1ccc(Cl)cc1 | 1.15 µM
58 | O=c1c2ccc(Cl)cc2[nH]c(=S)n1CCC1=CCCCC1 | 2.15 µM
59 | COc1cc(OC)c2c(-c3ccccc3)cc(C3CCCCC3)nc2c1 | 12.1 µM
60 | O=C(Nc1ccc(F)cc1)Nc1cc(OCC(F)(F)F)cc(OCC(F)(F)F)c1 | 5.78 µM
61 | CC(=O)c1nn(-c2ccc(Br)cc2)cc1C(=O)c1ccccc1 | 22.1 µM
62 | CC1(C(=O)NS(=O)(=O)c2ccc(Cl)s2)CCN1C(=O)C1(c2ccccc2)CCCC1 (stereo not drawn) | 9.9 µM
63 | CCCOc1ccc(/C=N/NC(=O)C(=O)Nc2ccccn2)cc1 | 18.5 µM
64 | COc1cc(NC(=O)c2cccc(C)c2)ccc1NC(=O)c1cc2ccccc2o1 | 2.21 µM
65 | COc1cc2nc(N3CCN(c4cc(C)ccc4C)CC3)nc(N)c2cc1OC | 8.68 µM
66 | O=C(NN=Cc1ccccc1Cl)c1cccc2ccccc12 | 7.18 µM

Row | SMILES | AC40
67 | CCN=C1NC(c2ccc(C(F)(F)F)cc2)C(C(=O)OC)=C(C)N1Cc1cccc(C(F)(F)F)c1 (stereo not drawn) | 3.88 µM
68 | COc1ccc(S(=O)(=O)Nc2ccccc2OC)cc1N=Nc1c(O)[nH]c(=S)[nH]c1=O | 12.6 µM
69 | N#Cc1c(-c2cccc(Br)c2)cc(-c2cccnc2)nc1N | 8.34 µM
70 | Cc1ccccc1-c1ccc(C2[C@@H]3CN(S(=O)(=O)c4ccccc4C)C[C@H]2N3)cc1 (stereo partly drawn) | 5.8 µM
71 | Cc1cccn2cc(CNS(=O)(=O)c3ccc4ccccc4c3)nc12 | 2.91 µM
72 | CC(=O)C1=C(S(=O)(=O)c2ccc(C)cc2)CS(=O)(=O)C1 | 0.613 µM
73 | Cc1cccc(S(=O)(=O)N2C[C@@H]3N[C@H](C2)C3c2ccc(-c3ccccc3F)cc2)c1 (stereo partly drawn) | 2.91 µM
74 | COc1ccc(N2CCN(c3ccc(NC(=O)C4CCCCC4)cc3C#N)CC2)cc1 | 3.22 µM
75 | CN(C)CCNC(=O)c1cccc(-c2cc(NC=O)c3ncc(-c4cccc(C(F)(F)F)c4)n3c2)c1 | 13.7 µM
76 | O=C(Nc1nnc(-c2ccc(F)cc2)s1)C1CCN(S(=O)(=O)c2ccc(Cl)cc2)CC1 | 5.13 µM
77 | C/C=C/c1ccc(C2[C@@H]3CN(C(=O)Nc4ccc(C(F)(F)F)cc4)C[C@H]2N3)cc1 (stereo partly drawn) | 5.83 µM
78 | CN1CCN(C2Cc3ccccc3Sc3cc(C(F)(F)F)ccc32)CC1 (stereo not drawn) | 7.2 µM
79 | COc1ccc(CCNC(=O)C(=O)NN=C2CCCCCCC2)cc1OC | 21.7 µM
80 | O=c1[nH]cnc2nc(-c3ccc(N(CCCl)CCCl)cc3)[nH]c12 | 4.26 µM
81 | Cc1nnn(-c2nonc2N)c1C(=O)N/N=C/c1cccc2ccccc12 | 6.5 µM
82 | Cc1ccc(OCC(=O)NC(=S)Nc2cccc(NC(=O)c3ccccc3)c2)cc1 | 8.85 µM
83 | CCOc1ccc(/C=N/NC(=O)c2cc(-c3ccco3)nc3ccccc23)cc1 | 6.73 µM
84 | COc1cc2ccccc2cc1C(=O)Nc1ccc2oc(=O)ccc2c1 | 9.12 µM
85 | Cc1ccc(-n2cc(CNCCCn3ccnc3C)c(-c3ccc(F)cc3)n2)cc1 | 30.7 µM
86 | Cc1ccc(C(=O)c2sc3nc4c(cc3c2N)CCC4)cc1 | 11.3 µM
87 | CCOc1ccc2nc(NCCNC(=O)Nc3ccccc3)c(C#N)cc2c1 | 8.22 µM
88 | FC(F)(F)c1cc(CCN2CCNC[C@@H]2c2ccccc2)cc(C(F)(F)F)c1 | 7.26 µM

Row | SMILES | AC40
89 | Clc1ccc(-c2ccnc(Oc3ccc4ccccc4c3)n2)cc1 | 7.79 µM
90 | O=C(N/N=C/c1ccc(O)cc1O)NC12CC3CC(CC(C3)C1)C2 | 13.3 µM
91 | Cc1ccccc1-n1sc2cc(F)ccc2c1=O | 0.539 µM
92 | CCn1c(O)c(/C=N/N=C/c2ccc(OC)cc2)c2cc(C3=NNC(=O)CC3)ccc21 | 4.2 µM
93 | Cc1cc(S(=O)(=O)Nc2nc(CN3CCOCC3)nc3sc4c(c23)CCC4)ccc1F | > 35 µM (inactive)
94 | CCOC(=O)[C@]12Cc3c(cc(OC)c(OC)c3OC)[C@H]1N(C1CCCCC1)C(=O)c1cc(OC)ccc12 | 6 µM
95 | O=C(NCc1ccccn1)c1coc(=O)c(Br)c1 | 1.59 µM
96 | Nc1nc(N)c2cc(Sc3ccc(Cl)cc3)ccc2n1 | 9.55 µM
97 | CCc1ccc(-c2c(C)sc(NC(=O)C3CCC3)c2C#N)cc1 | > 35 µM (inactive)
98 | Cc1cc(Cl)ccc1Oc1nc(-c2ccccc2)ncc1S(C)(=O)=O | 3.04 µM
99 | OC(CNCCC1C=Nc2ccccc21)Cn1c2ccc(Cl)cc2c2cc(Cl)ccc21 (stereo not drawn) | 9.56 µM
100 | Fc1ccccc1-c1ccc(C2[C@@H]3CN(Cc4ccccc4)C[C@H]2N3)cc1 (stereo partly drawn) | 7.19 µM
101 | Cc1cc(NC(=O)c2ccccc2F)n(-c2nc3ccccc3[nH]2)n1 | 4.6 µM
102 | CCOc1ccc2ccc(OCC)c(/C=N/n3cnnc3)c2c1 | 34.8 µM
103 | FC(F)(F)c1cc(CCN2CCNC[C@H]2Cc2cccc3ccccc23)cc(C(F)(F)F)c1 | 3.69 µM
104 | Cc1ccccc1-c1ccc(C2[C@@H]3CN(C(=O)Nc4cccc(F)c4)C[C@H]2N3)cc1 (stereo partly drawn) | 7.52 µM
105 | COc1ccc(-n2sc3ccccc3c2=O)cc1 | 0.759 µM
106 | CC(NCC(O)COCCC12CC3CC(CC(C3)C1)C2)c1ccccc1 (stereo not drawn) | 8.21 µM
107 | Cc1ccc(C)c(C(=O)Nc2nc3ccccc3[nH]2)c1 | 4.67 µM
108 | CCCCCCCOC(=O)c1nc(Cl)c(Cl)c(N)c1Cl | 8.89 µM
